From PubChem BioAssay AID330 (DTP/NCI, 2004)
Values joined by “and” are separate entries in the source; they are usually repeats but may differ in a detail not shown here. Equal entries are not always repeated. Inconclusive results and toxic doses are left out. The calls were made as follows: active = survival T/C of 150% or more; inactive = T/C below 125% in these data.

Test system: P388 leukemia ip, CD2F1 mice, survival T/C
Experiment: NCI In Vivo Anticancer Drug Screen. Data for tumor model P388 Leukemia (intraperitoneal) in CD2F1 (CDF1) mice
Conditions: endpoint: median survival time, higher = longer survival
Procedure, shortened: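 Mice carrying the transplanted tumor received test compound or vehicle. Survival was recorded in each group, and the value is the treated-group measurement divided by that of the vehicle-treated control group.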

[1] = dose: 100.0 mg/kg/injection, schedule: Q04DX002 (ip), vehicle: saline with Tween-80
[2] = dose: 200.0 mg/kg/injection, schedule: Q04DX002 (ip), vehicle: saline with Tween-80

Measured: T/C

Clc1c2ccccc2c(Cl)c2ccccc12
inactive: [1] 97 % of control | [2] 103 % of control | dose: 400.0 mg/kg/injection, schedule: Q04DX002 (ip), vehicle: saline with Tween-80 96 % of control

CCN(CC)C(=O)Nc1ccc(OCC(O)CNC(C)(C)C)c(C(C)=O)c1 (centres undefined)
inactive: dose: 50.0 mg/kg/injection, schedule: Q01DX009 (ip), vehicle: water 114 % of control | dose: 100.0 mg/kg/injection, schedule: Q01DX009 (ip), vehicle: water 102 % of control | dose: 200.0 mg/kg/injection, schedule: Q01DX009 (ip), vehicle: water 105 % of control

c1ccc(Sc2cccc3ccccc23)cc1
inactive: dose: 100.0 mg/kg/injection, schedule: Q04DX003 (ip), vehicle: saline with Tween-80 95 % of control | dose: 200.0 mg/kg/injection, schedule: Q04DX003 (ip), vehicle: saline with Tween-80 109 % of control | dose: 400.0 mg/kg/injection, schedule: Q04DX003 (ip), vehicle: saline with Tween-80 104 % of control

O=C(c1ccccc1)c1cccc[n+]1Cc1ccccc1
inactive: dose: 12.5 mg/kg/injection, schedule: Q01DX009 (ip), vehicle: saline 103 % of control | dose: 25.0 mg/kg/injection, schedule: Q01DX009 (ip), vehicle: saline 96 % of control | dose: 50.0 mg/kg/injection, schedule: Q01DX009 (ip), vehicle: saline 98 % of control and 100 % of control

COC(=O)c1ccc(CSc2ccccc2NC(=S)Nc2cccc(C(F)(F)F)c2)o1
inactive: dose: 6.25 mg/kg/injection, schedule: Q01DX005 (ip), vehicle: saline with Tween-80 104 % of control | dose: 12.5 mg/kg/injection, schedule: Q01DX005 (ip), vehicle: saline with Tween-80 100 % of control | dose: 25.0 mg/kg/injection, schedule: Q01DX005 (ip), vehicle: saline with Tween-80 98 % of control

Nc1c(C(=O)Nc2ccc(NC(=O)c3ccc4c(c3N)C(=O)c3ccccc3C4=O)c3c2C(=O)c2ccccc2C3=O)ccc2c1C(=O)c1ccccc1C2=O
inactive: dose: 50.0 mg/kg/injection, schedule: Q01DX009 (ip), vehicle: suspension in saline 103 % of control | dose: 100.0 mg/kg/injection, schedule: Q01DX009 (ip), vehicle: suspension in saline 106 % of control | dose: 200.0 mg/kg/injection, schedule: Q01DX009 (ip), vehicle: suspension in saline 103 % of control

CCC1NN1C(C)C (centres undefined)
inactive: dose: 50.0 mg/kg/injection, schedule: Q04DX002 (ip), vehicle: saline with Tween-80 100 % of control | [1] 95 % of control | [2] 107 % of control

O=C(Nc1cc(Cl)cc(Cl)c1)OC1CC2CC1C1CC3OC3C21 (centres undefined)
inactive: dose: 50.0 mg/kg/injection, schedule: Q01DX005 (ip), vehicle: Klucel (hydroxypropylcellulose) (HPC) 94 % of control | dose: 100.0 mg/kg/injection, schedule: Q01DX005 (ip), vehicle: Klucel (hydroxypropylcellulose) (HPC) 99 % of control | dose: 200.0 mg/kg/injection, schedule: Q01DX005 (ip), vehicle: Klucel (hydroxypropylcellulose) (HPC) 92 % of control

CC[n+]1c(/C=C/c2ccc(N(C)C)cc2)ccc2ccccc21
inactive: dose: 0.19 mg/kg/injection, schedule: Q01DX009 (ip), vehicle: saline 100 % of control | dose: 0.39 mg/kg/injection, schedule: Q01DX009 (ip), vehicle: saline 86 % of control | dose: 0.78 mg/kg/injection, schedule: Q01DX009 (ip), vehicle: saline 114 % of control | dose: 1.56 mg/kg/injection, schedule: Q01DX009 (ip), vehicle: saline 96 % of control

CC1=CC(S)NC(=S)N1 (centres undefined)
inactive: dose: 60.0 mg/kg/injection, schedule: Q01DX005 (ip), vehicle: saline with Tween-80 101 % of control | dose: 120.0 mg/kg/injection, schedule: Q01DX005 (ip), vehicle: saline with Tween-80 105 % of control | dose: 240.0 mg/kg/injection, schedule: Q01DX005 (ip), vehicle: saline with Tween-80 102 % of control

O=C1C=C(Nc2ccc(Br)cc2)C(Nc2ccc(Br)cc2)=CC1=O
inactive: dose: 4.68 mg/kg/injection, schedule: Q01DX009 (ip), vehicle: saline with Tween-80 97 % of control | dose: 9.37 mg/kg/injection, schedule: Q01DX009 (ip), vehicle: saline with Tween-80 105 % of control | dose: 18.75 mg/kg/injection, schedule: Q01DX005 (ip), vehicle: saline with Tween-80 100 % of control | dose: 18.75 mg/kg/injection, schedule: Q01DX009 (ip), vehicle: saline with Tween-80 106 % of control | dose: 37.5 mg/kg/injection, schedule: Q01DX005 (ip), vehicle: saline with Tween-80 92 % of control

O=S1(=O)CC(N2CCCCC2)C2=C(O1)c1ccccc1N(c1ccccc1)C2 (centres undefined)
inactive: dose: 50.0 mg/kg/injection, schedule: Q01DX009 (ip), vehicle: saline with Tween-80 97 % of control | dose: 100.0 mg/kg/injection, schedule: Q01DX009 (ip), vehicle: saline with Tween-80 96 % of control | dose: 200.0 mg/kg/injection, schedule: Q01DX009 (ip), vehicle: saline with Tween-80 97 % of control
